Laboratory results reported in patent US20230081357A1, “TOPICAL COMPOSITION COMPRISING CANNABIDIOL” (CURALEAF INTERNATIONAL LIMITED, priority 2020, published 2023).

Assays:
[1] = test system: IL-1α; assay: Particulate (PM2.5) resistance test, IL-1α release by ELISA; type: cell-based, human; details: sample alone, 24 h at 37° C.; 30 μl CBD-S5, 30 μl SDS 5% or 20 μg PM2.5; untreated RHE (NC) = 100%
Procedure: After incubation at 37° C. for 24 h in a controlled atmosphere of 5% CO2, the cell viability of the RHE sample was assessed by MTT assay, as described in Example 5A, while the culture medium was collected and analyzed for IL-1α release by ELISA assay, using an EMIL1ALPHA kit (Invitrogen-Thermo Scientific) with the following procedure.
100 μl of medium from each treatment was transferred to wells coated with anti-human IL-1α and incubated for 2 hours at room temperature. At the end of the incubation, the medium was removed and the wells were washed 4 times with 1× Wash Buffer. 100 μl of biotinylated antibody was added to each well and incubated for 1 hour at room temperature. At the end, the wells were washed 4 times with 1× Wash Buffer, treated with 100 μl of Streptavidin-HRP solution for 45 minutes at room temperature and finally washed 4 times with 1× Wash Buffer. 100 μl of TMB substrate was added to each well and incubated for 10 minutes in the dark. Finally, 100 μl of stop solution was added to each well and spectrophotometric readings were taken at wavelengths of 450 nm and 550 nm using the μQUANT BIO TEK Microplate Spectrophotometer instrument.
Changes in IL-1α levels released from the RHE tissue after each treatment were expressed as % values compared to the untreated RHE (NC) used as control (100%).

[2] = test system: reconstituted human epidermis (RHE); assay: In vitro irritation test on reconstituted human epidermis, MTT cell viability; type: cell-based; details: 60 minutes treatment, 24 hours incubation, % of negative control, 25 μg CBD-S5 or 30 μL 5% SDS
Procedure: The in vitro test consists of a topical exposure of the test substance on reconstituted human epidermis (RHE) followed by a cell viability test.
Cell viability is determined by the conversion of MTT (3-(4,5-dimethylthiazol-2-yl)-2,5-diphenyltetrazolium bromide) to a formazan blue salt, which is quantitatively measured after extraction from tissue. Conversion occurs via the mitochondrial enzyme succinate dehydrogenase, which is only active in living cells, causing the MTT tetrazole ring to open and formazan to form. Assessment of the viability of tissues exposed to the test substance compared to the negative control (treated with Dulbecco's phosphate buffered saline—DPBS) and the positive control (treated with sodium dodecyl sulphate—SDS) is used to predict skin irritation potential.
The reconstructed human epidermis model consists of normal human-derived epidermal keratinocytes cultured to recreate a highly differentiated multilayered human epidermis. […]
The optical density of the extracted formazan is determined spectrophotometrically at a wavelength of 570 nm using the μQUANT BIO TEK Microplate Spectrophotometer. Relative cell viability is calculated for each tissue as % of the mean optical density of the negative control tissues.

[3] = In vitro soothing efficacy, cell viability by MTT after SLS; type: cell-based; details: human; read-out: % mean cell viability (standard deviation)
Procedure: (§1) The assay assessed quantitatively the effects of the sample in protecting skin cells and in inhibiting the […] reaction caused by moderate irritating agents as sodium lauryl sulfate (SLS) by means of a multilayer in vitro skin cell model.
(§2) The inhibition of the SLS-induced release of IL-1α cytokine was investigated (through specific ELISA assay) following exposure to the tested substance and respect to skin untreated samples. Cell viability was determined by the MTT assay.
(§3) Both assays used a reconstructed artificial human skin model comprising normal human epidermal keratinocytes, growing as an integrated three-dimensional cell culture model, perfectly mimicking the human skin in vitro. […] The model was supplied by Episkin (Lion, Batch 20-RHE-041).
Epidermis was treated for 70 minutes with SLS at 0.30% in order to induce IL-1α synthesis and release. […] As negative control, two epidermis units were treated with phosphate buffer, while epidermis units treated for 70 minutes with SLS 0.30% were used as positive control. […]
Epidermis units were treated with 1 mg/ml MTT solution (3-[4,5-dimethylthiazol-2-yl]-2,5-diphenyl tetrazolium bromide) for 3 h at 37° C. […] Two aliquots of every sample were transferred to a 96 well plate for the reading. The absorbance (OD) was read at the wavelength of 570 nm with a colorimeter (Tecan model Infinite F200) equipped with a microplate reader. […]

[4] = test system: human hair dermal papilla cells (HHDPCs); assay: Mitogenesis in hair bulb cells, cell viability by MTT after starving; type: cell-based; details: positive control (human insulin), % of negative control
Procedure: (§4) The test is carried out on human hair dermal papilla cells (HHDPCs) with fibroblast-like morphology. Cells are cultured in MEM containing 10% FBS and antibiotics.
(§5) Cells have been seeded in 24 wells plates and allowed to grow for 24 h at 37° C. and 5% CO2. Cells underwent starvation in serum-free medium for 6 hours before treatment.
(§6) The niosome dispersion was dissolved directly in the medium culture. The test was carried out in three replicates.
(§7) After 24- and 48-hours exposure the cell viability and the total cellular protein content were assessed on separate plates. Untreated cells were used as negative controls (NC); cells treated with human insulin were used as positive control (PC).
The cell viability was assessed by incubating the tissues for 2 hours with MTT (3-[4,5-dimethylthiazol-2-yl]-2,5-diphenyl tetrazolium bromide) solution. The precipitated formazan was then extracted using DMSO and quantified spectrophotometrically. The absorbance at 570 nm (OD570) was measured with a microplate reader (Tecan, Infinite 200 PRO), deducting background at 650 nm (OD650).
The cell viability was expressed in percentage terms according to the following formula: […]

[5] = test system: IL-1α; assay: In vitro soothing efficacy, SLS-induced IL-1α release by ELISA; type: cell-based, human; details: SLS 0.30% for 70 minutes, then CBD-S5 diluted at 2%, positive control = SLS only
Procedure: as §1, §2, §3
Epidermis was treated for 70 minutes with SLS at 0.30% in order to induce IL-1α synthesis and release. […] As negative control, two epidermis units were treated with phosphate buffer, while epidermis units treated for 70 minutes with SLS 0.30% were used as positive control. Test was carried out in two replicates.
For IL-1α assay, the culture medium has been collected at 6 and 24 hours. […] IL-1α was determined in the medium culture of treated and not treated epidermis, using a direct ELISA test (Enzyme-linked immunosorbent assay). […] Samples were read at 450 nm. […]
Cytokine concentration was determined using a standard curve. […]

[6] = test system: human hair dermal papilla cells (HHDPCs); assay: Mitogenesis in hair bulb cells, total cellular protein content (Bradford); type: cell-based; details: positive control (human insulin), % of negative control
Procedure: as §4, §5, §6, §7
The total cellular protein content was tested according to Bradford method. Cells at the end of the treatment were washed twice with PBS and lysed by treatment with purified water at 4° C. Dye reagent was added to each sample. […] Reading was made at 595 nm with a colorimeter equipped with a plate-reader.
To quantify proteins, a standard plot with albumin was designed and the sample concentrations were determined on the bases of their absorbance values using the interpolation plot formula. Mean values of every set of data were calculated, and for each sample the percentage of increase in the protein synthesis was determined by comparison with the negative control (NC) according to the following formula: […]

[7] = test system: transfected rat basophil cells (RBL-2H3 ATCC® CRL-2256™) expressing the IgE human receptor (FcRI); assay: Anti-itch activity: basophil degranulation, β-hexosaminidase release; type: cell-based; details: for % degranulation inhibition: basophils activated with anti-IgE receptor
Description: In vivo, a basophil cell degranulation mediated by IgE triggers an immediate allergic reaction characterized by the quick release of pre-stored inflammatory mediators (histamine, leukotrienes, thromboxane, basophilic enzymes, hexosaminidases), causing redness, rashes, itchiness and local inflammatory reactions. The ability of a composition to inhibit the degranulation of basophil cells is an indicator of its capability to inhibit the above described symptoms and above them mainly itching.
The test is carried out on a cell line of transfected rat basophil cells (RBL-2H3 ATCC® CRL-2256™) expressing the IgE human receptor (FcRI). Cells are kept in RPMI containing 10% FCS and 2 mM glutamine.
Untreated cells were used as negative control for the spontaneous degranulation.
A positive control consisting in cells exposed to anti-human IgE receptor antibodies was used to evaluate the maximal degranulation level.
Cell lysates in 1% Triton were also analyzed in order to evaluate the highest possible release of the analyzed molecules.
The release of β-hexosaminidase during degranulation was monitored on RBL-SX38 cell supernatant added with […]-N-acetyl-β-D-glucosamine (Sigma-Aldrich) in 0.1 M citrate buffer (pH 6.2) and incubated at 37° C. for 120 min. The reaction was terminated using 0.1M carbonate buffer (pH 10), and the absorbance was read at 405 nm (OD405).
The supernatant of untreated cells was used as negative control. The maximal stimulation of RBL-SX38 was evaluated on a 1% Triton X-100 lysate of the cell monolayer.
Sodium hyaluronate in serial dilutions, as indicated in the following Table 11, was also used as a control of the inhibition of basophil degranulation.
The inhibition degranulation percentage of activated basophil with IgE receptor has been calculated with the following formula: […]

Question: For `CCCCCCCCCCCCOS(=O)(=O)[O-].[Na+]` [PC, sodium dodecyl sulphate], which “Mean IL-1α release (%)” value [1] is on record?
Answer: The value was 235.35%.

Question: And the “Mean relative viability (%)” value [2]?
Answer: The value was 2.16%.

Question: For `CCCCCCCCCCCCOS(=O)(=O)[O-].[Na+]` [Positive control (PC), sodium lauryl sulfate], which viability at 70 min, 0.3 % [3] is on record?
Answer: The viability at 70 min, 0.3 % was 47.4%.

Question: For “Positive control: positive control of Example 10: cells treated with human insulin”, which “% cell viability (ds)” value ([4]; 24 hours) is on record?
Answer: The value was 136.73%.

Question: What about the “% cell viability (ds)” value ([4]; 48 hours) of the same molecule?
Answer: Its value is 136.72 (8.16) %.

Question: And the “IL-1α, 6 hours” value ([5]; culture medium at 6 hours)?
Answer: Its value is 105.57 pg/mL.

Question: What about the “IL-1α, 24 hours” value ([5]; culture medium at 24 hours) of the same molecule?
Answer: The value was 597.32 pg/mL.

Question: What about the “% protein synthesis (ds)” value ([6]; 24 hours) of the same molecule?
Answer: Its value is 140.65%.

Question: What about the “% protein synthesis (ds)” value ([6]; 48 hours) of the same molecule?
Answer: Its value is 149.65 (10.83) %.

Question: What does the source list for “Sodium hyaluronate [Hyaluronic acid (HA)]”?
Answer: OD405 ([7]; 1.25 mg/ml + positive control (anti-human IgE receptor)): 0.879; OD405 ([7]; 1.25 mg/ml, sample alone (spontaneous degranulation)): 0.086; % degranulation inhibition ([7]; 1.25 mg/ml): 15.7%; OD405 ([7]; 2.5 mg/ml + positive control (anti-human IgE receptor)): 0.690; OD405 ([7]; 2.5 mg/ml, sample alone (spontaneous degranulation)): 0.084; % degranulation inhibition ([7]; 2.5 mg/ml): 35.3%; OD405 ([7]; 5 mg/ml + positive control (anti-human IgE receptor)): 0.527; OD405 ([7]; 5 mg/ml, sample alone (spontaneous degranulation)): 0.077; % degranulation inhibition ([7]; 5 mg/ml): 52.3%; OD405 ([7]; 10 mg/ml + positive control (anti-human IgE receptor)): 0.255; OD405 ([7]; 10 mg/ml, sample alone (spontaneous degranulation)): 0.065; % degranulation inhibition ([7]; 10 mg/ml): 80.6%

Question: With Triton X-100 as the molecule, how does the OD405 ([7]; controls: maximal degranulation by anti-human IgE receptor antibodies, 1% Triton X-100 lysate, negative control 0.068) read?
Answer: The OD405 was 1.852.
